System: KM-20L2 human colorectal adenocarcinoma
Test: KM-20L2 xenograft model: growth of established KM-20L2 human colorectal tumors in athymic nude mice (tumor volume/weight, % T/C, Fa, Combination Index)
Type: in vivo

## Nc1ccn([C@@H]2O[C@H](CO)[C@@H](O)C2(F)F)c(=O)n1 [Gemcitabine, gemcitabine, reference compound]
Gem 5 mg/kg, Day 9
  Mean Fraction Affected (Fa): 0.097
  Mean Fraction Affected/Fraction Unaffected (Fa/Fu): 0.107
  Mean Tumor Volume: 101.0 cubic mm
  Mean Tumor Volume Decrease: 10.8 cubic mm
Gem 5 mg/kg, Day 13
  Mean Fraction Affected (Fa): 0.178
  Mean Fraction Affected/Fraction Unaffected (Fa/Fu): 0.217
  Mean Tumor Volume: 141.8 cubic mm
  Mean Tumor Volume Decrease: 30.8 cubic mm
Gem 5 mg/kg, Day 16
  Mean Fraction Affected (Fa): 0.230
  Mean Fraction Affected/Fraction Unaffected (Fa/Fu): 0.298
  Mean Tumor Volume: 204.1 cubic mm
  Mean Tumor Volume Decrease: 60.9 cubic mm
Gem 5 mg/kg, Day 20
  Mean Fraction Affected (Fa): 0.310
  Mean Fraction Affected/Fraction Unaffected (Fa/Fu): 0.449
  Mean Tumor Volume: 276.8 cubic mm
  Mean Tumor Volume Decrease: 124.2 cubic mm
Gem 5 mg/kg, Day 23
  Mean Fraction Affected (Fa): 0.295
  Mean Fraction Affected/Fraction Unaffected (Fa/Fu): 0.419
  Mean Tumor Volume: 371.6 cubic mm
  Mean Tumor Volume Decrease: 155.6 cubic mm
Gem 5 mg/kg, Day 27
  Mean Fraction Affected (Fa): 0.242
  Mean Fraction Affected/Fraction Unaffected (Fa/Fu): 0.320
  Mean Tumor Volume: 506.7 cubic mm
  Mean Tumor Volume Decrease: 161.9 cubic mm
Gem 5 mg/kg, Day 30
  Mean Fraction Affected (Fa): 0.245
  Mean Fraction Affected/Fraction Unaffected (Fa/Fu): 0.325
  Mean Tumor Volume: 616.2 cubic mm
  Mean Tumor Volume Decrease: 200.0 cubic mm
Gem 5 mg/kg, Day 34
  Mean Fraction Affected (Fa): 0.295
  Mean Fraction Affected/Fraction Unaffected (Fa/Fu): 0.419
  Mean Tumor Volume: 740.4 cubic mm
  Mean Tumor Volume Decrease: 309.9 cubic mm
Gem 5 mg/kg, Day 37
  Mean Fraction Affected (Fa): 0.274
  Mean Fraction Affected/Fraction Unaffected (Fa/Fu): 0.377
  Mean Tumor Volume: 877.5 cubic mm
  Mean Tumor Volume Decrease: 330.5 cubic mm
Gem 5 mg/kg, Day 41
  Mean Fraction Affected (Fa): 0.253
  Mean Fraction Affected/Fraction Unaffected (Fa/Fu): 0.339
  Mean Tumor Volume: 1075.3 cubic mm
  Mean Tumor Volume Decrease: 364.1 cubic mm
Gem 5 mg/kg, Day 43
  Mean Fraction Affected (Fa): 0.226
  Mean Fraction Affected/Fraction Unaffected (Fa/Fu): 0.291
  Mean Tumor Volume: 1244.3 cubic mm
  Mean Tumor Volume Decrease: 362.4 cubic mm
Gem 10 mg/kg, Day 9
  Mean Fraction Affected (Fa): 0.084
  Mean Fraction Affected/Fraction Unaffected (Fa/Fu): 0.092
  Mean Tumor Volume: 102.4 cubic mm
  Mean Tumor Volume Decrease: 9.4 cubic mm
Gem 10 mg/kg, Day 13
  Mean Fraction Affected (Fa): 0.184
  Mean Fraction Affected/Fraction Unaffected (Fa/Fu): 0.225
  Mean Tumor Volume: 140.9 cubic mm
  Mean Tumor Volume Decrease: 31.7 cubic mm
Gem 10 mg/kg, Day 16
  Mean Fraction Affected (Fa): 0.362
  Mean Fraction Affected/Fraction Unaffected (Fa/Fu): 0.568
  Mean Tumor Volume: 169.0 cubic mm
  Mean Tumor Volume Decrease: 96.0 cubic mm
Gem 10 mg/kg, Day 20
  Mean Fraction Affected (Fa): 0.422
  Mean Fraction Affected/Fraction Unaffected (Fa/Fu): 0.731
  Mean Tumor Volume: 231.7 cubic mm
  Mean Tumor Volume Decrease: 169.3 cubic mm
Gem 10 mg/kg, Day 23
  Mean Fraction Affected (Fa): 0.410
  Mean Fraction Affected/Fraction Unaffected (Fa/Fu): 0.694
  Mean Tumor Volume: 311.2 cubic mm
  Mean Tumor Volume Decrease: 216.0 cubic mm
Gem 10 mg/kg, Day 27
  Mean Fraction Affected (Fa): 0.376
  Mean Fraction Affected/Fraction Unaffected (Fa/Fu): 0.602
  Mean Tumor Volume: 417.4 cubic mm
  Mean Tumor Volume Decrease: 251.2 cubic mm
Gem 10 mg/kg, Day 30
  Mean Fraction Affected (Fa): 0.388
  Mean Fraction Affected/Fraction Unaffected (Fa/Fu): 0.634
  Mean Tumor Volume: 499.5 cubic mm
  Mean Tumor Volume Decrease: 316.7 cubic mm
Gem 10 mg/kg, Day 34
  Mean Fraction Affected (Fa): 0.388
  Mean Fraction Affected/Fraction Unaffected (Fa/Fu): 0.635
  Mean Tumor Volume: 642.3 cubic mm
  Mean Tumor Volume Decrease: 408.0 cubic mm
Gem 10 mg/kg, Day 37
  Mean Fraction Affected (Fa): 0.401
  Mean Fraction Affected/Fraction Unaffected (Fa/Fu): 0.669
  Mean Tumor Volume: 723.7 cubic mm
  Mean Tumor Volume Decrease: 484.3 cubic mm
Gem 10 mg/kg, Day 41
  Mean Fraction Affected (Fa): 0.399
  Mean Fraction Affected/Fraction Unaffected (Fa/Fu): 0.664
  Mean Tumor Volume: 865.2 cubic mm
  Mean Tumor Volume Decrease: 574.2 cubic mm
Gem 10 mg/kg, Day 43
  Mean Fraction Affected (Fa): 0.393
  Mean Fraction Affected/Fraction Unaffected (Fa/Fu): 0.647
  Mean Tumor Volume: 975.7 cubic mm
  Mean Tumor Volume Decrease: 631.0 cubic mm
Gem 20 mg/kg, Day 9
  Mean Fraction Affected (Fa): 0.053
  Mean Fraction Affected/Fraction Unaffected (Fa/Fu): 0.056
  Mean Tumor Volume: 105.9 cubic mm
  Mean Tumor Volume Decrease: 5.9 cubic mm
Gem 20 mg/kg, Day 13
  Mean Fraction Affected (Fa): 0.357
  Mean Fraction Affected/Fraction Unaffected (Fa/Fu): 0.555
  Mean Tumor Volume: 111.0 cubic mm
  Mean Tumor Volume Decrease: 61.6 cubic mm
Gem 20 mg/kg, Day 16
  Mean Fraction Affected (Fa): 0.623
  Mean Fraction Affected/Fraction Unaffected (Fa/Fu): 1.655
  Mean Tumor Volume: 99.8 cubic mm
  Mean Tumor Volume Decrease: 165.2 cubic mm
Gem 20 mg/kg, Day 20
  Mean Fraction Affected (Fa): 0.748
  Mean Fraction Affected/Fraction Unaffected (Fa/Fu): 2.966
  Mean Tumor Volume: 101.1 cubic mm
  Mean Tumor Volume Decrease: 299.9 cubic mm
Gem 20 mg/kg, Day 23
  Mean Fraction Affected (Fa): 0.721
  Mean Fraction Affected/Fraction Unaffected (Fa/Fu): 2.579
  Mean Tumor Volume: 147.3 cubic mm
  Mean Tumor Volume Decrease: 379.9 cubic mm
Gem 20 mg/kg, Day 27
  Mean Fraction Affected (Fa): 0.663
  Mean Fraction Affected/Fraction Unaffected (Fa/Fu): 1.970
  Mean Tumor Volume: 225.1 cubic mm
  Mean Tumor Volume Decrease: 443.5 cubic mm
Gem 20 mg/kg, Day 30
  Mean Fraction Affected (Fa): 0.605
  Mean Fraction Affected/Fraction Unaffected (Fa/Fu): 1.530
  Mean Tumor Volume: 322.6 cubic mm
  Mean Tumor Volume Decrease: 493.6 cubic mm
Gem 20 mg/kg, Day 34
  Mean Fraction Affected (Fa): 0.578
  Mean Fraction Affected/Fraction Unaffected (Fa/Fu): 1.371
  Mean Tumor Volume: 443.0 cubic mm
  Mean Tumor Volume Decrease: 607.3 cubic mm
Gem 20 mg/kg, Day 37
  Mean Fraction Affected (Fa): 0.568
  Mean Fraction Affected/Fraction Unaffected (Fa/Fu): 1.314
  Mean Tumor Volume: 522.1 cubic mm
  Mean Tumor Volume Decrease: 685.9 cubic mm
Gem 20 mg/kg, Day 41
  Mean Fraction Affected (Fa): 0.532
  Mean Fraction Affected/Fraction Unaffected (Fa/Fu): 1.135
  Mean Tumor Volume: 674.3 cubic mm
  Mean Tumor Volume Decrease: 765.1 cubic mm
Gem 20 mg/kg, Day 43
  Mean Fraction Affected (Fa): 0.531
  Mean Fraction Affected/Fraction Unaffected (Fa/Fu): 1.134
  Mean Tumor Volume: 753.0 cubic mm
  Mean Tumor Volume Decrease: 853.7 cubic mm
Given Separately, Day 16
  Median Effect Dose: 14.1 mg/kg
Given Separately, Day 20
  Median Effect Dose: 10.1 mg/kg
Given Separately, Day 23
  Median Effect Dose: 10.8 mg/kg
Given Separately, Day 27
  Median Effect Dose: 12.8 mg/kg
Given Separately, Day 30
  Median Effect Dose: 14.1 mg/kg
Given Separately, Day 34
  Median Effect Dose: 14.8 mg/kg
Given Separately, Day 37
  Median Effect Dose: 15.0 mg/kg
Given Separately, Day 41
  Median Effect Dose: 16.8 mg/kg
Given Separately, Day 43
  Median Effect Dose: 16.9 mg/kg
Dose of the labelled agent when huCBE11 and Gemcitabine Combined (4:5), Day 16
  Median Effect Dose: 4.5 mg/kg
Dose of the labelled agent when huCBE11 and Gemcitabine Combined (4:5), Day 20
  Median Effect Dose: 1.7 mg/kg
Dose of the labelled agent when huCBE11 and Gemcitabine Combined (4:5), Day 23
  Median Effect Dose: 0.7 mg/kg
Dose of the labelled agent when huCBE11 and Gemcitabine Combined (4:5), Day 27
  Median Effect Dose: 0.9 mg/kg
Dose of the labelled agent when huCBE11 and Gemcitabine Combined (4:5), Day 30
  Median Effect Dose: 0.8 mg/kg
Dose of the labelled agent when huCBE11 and Gemcitabine Combined (4:5), Day 34
  Median Effect Dose: 0.8 mg/kg
Dose of the labelled agent when huCBE11 and Gemcitabine Combined (4:5), Day 37
  Median Effect Dose: 0.5 mg/kg
Dose of the labelled agent when huCBE11 and Gemcitabine Combined (4:5), Day 41
  Median Effect Dose: 0.7 mg/kg
Dose of the labelled agent when huCBE11 and Gemcitabine Combined (4:5), Day 43
  Median Effect Dose: 0.6 mg/kg
gemcitabine
  Activity by NCI criteria (% T/C of 42 or less): active
Gemcitabine 20 mg/kg Days 13-55, 10 mg/kg Days 16-55, 5 mg/kg Days 13-43, separate study
  Inhibition of tumor growth vs vehicle control: Significant inhibition of tumor growth
Gemcitabine 20 mg/kg, Day 16 through Day 34
  % T/C: ≤ 42%
Gemcitabine 25 mg/kg, Day 17 through Day 31
  % T/C: ≤ 42%
Gemcitabine 140, 100, 50 and 25 mg/kg, Day 10 to Day 41
  Inhibition of tumor growth vs saline control: Significant inhibition of tumor growth
Gemcitabine 140, 100 and 50 mg/kg, from Days 14 or 17 for the duration of the study
  % T/C: ≤ 42%

Source: patent US20060134102A1, “Lymphotoxin beta receptor agents in combination with chemotherapeutic agents” (Biogen Idec MA Inc., priority 2002, published 2006)
